# Literature values in patent US9586989B1, “Non-toxic skin cancer therapy with copper peptides” (Skin Biology, Inc., priority 2011, dated 2017).
# Legend:
# [1] = test system: 54 human genes overexpressed in patients with aggressive metastatic form of colon cancer; conditions: for concentration that produced downregulation of "metastatic" genes: Connectivity Map perturbagen search
# Ehrlich ascites cells = conditions: injection for 12 days; mixture of 8 micrograms ascorbic acid and 8 micrograms copper 2+ complex
Compound,"concentration that produced downregulation of ""metastatic"" genes [1]","share of genes in which RNA production was suppressed ([1]; of 54 human genes overexpressed in aggressive metastatic colon cancer, GHK without copper 2+)",share of mice that lived for a long time and resisted re-establishment of tumor cells (Ehrlich ascites cells),share of mice with prolonged life span (Ehrlich ascites cells)
O=C1C=C2C=C[C@@H]3C[C@@]2(O1)[C@H]1CCCCN31 [securinine],18 µM,,,
Gly-L-His-L-Lys [GHK],1 µM,70%,,
copper 2+ complexed to Glycyl-Glycyl-L-Histidine,,,40%,60%
